Measured values published in patent US11124516B2, “Pyrrolo[1,2-A]pyrimidinyl carboxamide compounds and their use in the treatment of medical disorders” (Bial—Biotech Investments, Inc., priority 2016, dated 2021).
Converted amounts (≈) assume the structure as drawn.

Experiments:
[1] = molecular target: T1, glucocerebrosidase (Gcase) (Homo sapiens, UniProt P04062); assay: Glucocerebrosidase (Gcase) activation assay, 4-methylumbelliferyl-beta-D-glucopyranoside substrate, fluorescence; assay type: biochemical; conditions: 0.25 h, 10 nM GCase, 100 nM saposin C; for activation at 0.1 µM: pH 4.7, test compound at 0.1 μM, read-out: Percent Gcase Activation 0.1 μM Test Compound; for activation at 1 µM: pH 4.7, test compound at 1.0 μM, read-out: Percent Gcase Activation 1 μM Test Compound
T1 sequence (P04062 40-536): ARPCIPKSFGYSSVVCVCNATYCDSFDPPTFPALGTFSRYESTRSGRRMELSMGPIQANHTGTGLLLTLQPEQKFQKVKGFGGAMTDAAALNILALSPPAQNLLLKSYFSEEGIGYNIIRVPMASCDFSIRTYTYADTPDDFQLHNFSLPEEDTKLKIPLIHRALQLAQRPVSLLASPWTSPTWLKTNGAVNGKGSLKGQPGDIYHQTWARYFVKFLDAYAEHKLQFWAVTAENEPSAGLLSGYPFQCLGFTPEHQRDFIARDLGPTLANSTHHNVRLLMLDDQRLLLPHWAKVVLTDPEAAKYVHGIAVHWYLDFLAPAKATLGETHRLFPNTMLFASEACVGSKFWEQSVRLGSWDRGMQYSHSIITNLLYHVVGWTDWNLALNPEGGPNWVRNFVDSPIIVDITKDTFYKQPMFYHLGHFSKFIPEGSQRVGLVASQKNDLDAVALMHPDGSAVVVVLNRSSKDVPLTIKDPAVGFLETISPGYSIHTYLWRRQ
Method: The ability of exemplary compounds to activate glucocerebrosidase (Gcase) was measured.
A 484 μL aliquot of a 1.0 mg/mL solution of phosphatidylserine (PS) (Sigma P7769) in chloroform was evaporated under a stream of nitrogen for 1 hour. The lipid film was dissolved over 4 minutes of vigorous vortexing in 40 mL of 176 mM K2HPO4/50 mM citric acid (pH 4.7) containing 7.5 μL of triton X-100, resulting in a mixed micellar preparation with a composition of 0.32 mM triton and 0.37 mol % PS. 4-Methylumbelliferyl-beta-D-glucopyranoside (ACROS-337025000) was dissolved in the micellar solution to a final concentration of 2 mM for use as the reaction substrate.
Test compounds were diluted to the desired concentrations with dimethylsulfoxide (DMSO) from 10 mM stocks, and 0.41 μL of the DMSO compound mixture was added to 100 μL of micellar solution containing 10 nM GCase and 100 nM saposin C (Enzo ALX-201-262-C050). Pre-incubation was allowed to occur for 30 minutes at room temperature, after which the reaction was initiated by combining 25 μL of substrate solution with 25 μL of compound/GCase/saposin mixture. The reaction proceeded for 15 minutes at room temperature and was stopped by adding 150 μL of 1M glycine, pH 12.5. The endpoint of the reaction was monitored by measuring fluorescence intensity (excitation: 365 nm; emission: 440 nm) on a SpectraMax i3 instrument (Molecular Devices). Test compounds were screened at 1.0 and 0.1 μM final concentration, and subsequent 8-point dose response curves were obtained using 3-fold dilutions from a maximum final concentration of 5 μM.
For experiments in which the test compound was used at a concentration of 1.0 μM, the symbol “+” indicates less than 30% Gcase activation; the symbol “++” indicates Gcase activation in the range of 30% up to 60%; and the symbol “+++” indicates Gcase activation greater than 60%. For experiments in which the test compound was used at a concentration of 0.1 μM, the symbol “*” indicates less than 10% Gcase activation; the symbol “**” indicates Gcase activation in the range of 10% up to 20%; and the symbol “***” indicates greater than 20% Gcase activation.

[2] = Compound solubility in water; assay type: physicochemical

SMILES: COC1CCC(Nc2cc(C)n3ccc(C(=O)NC(C)(C)C4CC4)c3n2)CC1 (stereo not drawn) [II1-37]
- activation at 0.1 µM [1]: < 10%
- activation at 1 µM [1]: 30 to 60%
- solubility [2]: 10.2 µg/mL (≈ 26.5 µM)

SMILES: COCc1cc(C)nc2c(C(=O)NC(C)(C)C3CC3)ccn12 [III 16]
- activation at 0.1 µM [1]: > 20%
- activation at 1 µM [1]: > 60%
- solubility [2]: 19.8 µg/mL (≈ 65.7 µM)

SMILES: COCc1cc(C(F)F)nc2c(C(=O)NC(C)(C)C3CC3)ccn12 [III-3]
- activation at 0.1 µM [1]: > 20%
- activation at 1 µM [1]: > 60%
- solubility [2]: 3.8 µg/mL (≈ 11.3 µM)

SMILES: COCc1cc(C(F)F)n2ccc(C(=O)NC(C)(C)C3CC3)c2n1 [III-4]
- activation at 0.1 µM [1]: > 20%
- activation at 1 µM [1]: > 60%
- solubility [2]: 17 µg/mL (≈ 50.4 µM)

SMILES: COCc1cc(C(F)F)nc2c(C(=O)NC(C)(C)C3CCC3)ccn12 [III-5]
- activation at 0.1 µM [1]: 10 to 20%
- activation at 1 µM [1]: > 60%
- solubility [2]: 3 µg/mL (≈ 8.54 µM)

SMILES: C[C@H](NC(=O)c1ccn2c(C(F)F)cc(C(F)F)nc12)C1CC1 [III-6]
- activation at 0.1 µM [1]: 10 to 20%
- activation at 1 µM [1]: > 60%
- solubility [2]: 33.5 µg/mL (≈ 102 µM)

SMILES: Cc1cc(C(F)F)nc2c(C(=O)N[C@@H](C)C3CC3)ccn12 [III-7]
- activation at 0.1 µM [1]: > 20%
- activation at 1 µM [1]: > 60%
- solubility [2]: 9.5 µg/mL (≈ 32.4 µM)

SMILES: Cc1cc(C(F)F)n2ccc(C(=O)N[C@@H](C)C3CC3)c2n1 [III-8]
- activation at 0.1 µM [1]: > 20%
- activation at 1 µM [1]: > 60%
- solubility [2]: 20.1 µg/mL (≈ 68.5 µM)

SMILES: CNc1cc(C)n2ccc(C(=O)NC(C)(C)C3CC3)c2n1 [III-10]
- activation at 0.1 µM [1]: > 20%
- activation at 1 µM [1]: > 60%
- solubility [2]: 11 µg/mL (≈ 38.4 µM)

SMILES: Cc1cc(Cl)nc2c(C(=O)NC(C)(C)C3CC3)ccn12 [III-11]
- activation at 0.1 µM [1]: > 20%
- activation at 1 µM [1]: > 60%
- solubility [2]: 1.1 µg/mL (≈ 3.77 µM)

SMILES: Cc1cc(Cl)n2ccc(C(=O)NC(C)(C)C3CC3)c2n1 [III-12]
- activation at 0.1 µM [1]: 10 to 20%
- activation at 1 µM [1]: > 60%
- solubility [2]: 5.8 µg/mL (≈ 19.9 µM)

SMILES: COc1cc(C)n2ccc(C(=O)NC(C)(C)C3CC3)c2n1 [III-13]
- activation at 0.1 µM [1]: 10 to 20%
- activation at 1 µM [1]: > 60%
- solubility [2]: 11.5 µg/mL (≈ 40 µM)

SMILES: Cc1cc(Br)nc2c(C(=O)NC(C)(C)C3CC3)ccn12 [III-14]
- activation at 0.1 µM [1]: 10 to 20%
- activation at 1 µM [1]: > 60%
- solubility [2]: 2.9 µg/mL (≈ 8.62 µM)

SMILES: COCc1cc(C)n2ccc(C(=O)NC(C)(C)C3CC3)c2n1 [III-15]
- activation at 0.1 µM [1]: 10 to 20%
- activation at 1 µM [1]: > 60%
- solubility [2]: 21.9 µg/mL (≈ 72.7 µM)

SMILES: Cc1cc(F)nc2c(C(=O)NC(C)(C)C3CC3)ccn12 [III-17]
- activation at 0.1 µM [1]: 10 to 20%
- activation at 1 µM [1]: > 60%
- solubility [2]: 6.3 µg/mL (≈ 22.9 µM)

SMILES: Cc1cc(C)n2ccc(C(=O)NC3(c4ccccc4)CC3)c2n1 [III-18]
- activation at 0.1 µM [1]: 10 to 20%
- activation at 1 µM [1]: > 60%
- solubility [2]: 7.7 µg/mL (≈ 25.2 µM)

SMILES: Cc1cc(C)n2ccc(C(=O)NC(C)(C)CC3CC3)c2n1 [III-19]
- activation at 0.1 µM [1]: > 20%
- activation at 1 µM [1]: > 60%
- solubility [2]: 14.7 µg/mL (≈ 51.5 µM)

SMILES: COCC(NC(=O)c1ccn2c(C)cc(C)nc12)c1ccccc1 (stereo not drawn) [III-20]
- activation at 0.1 µM [1]: < 10%
- activation at 1 µM [1]: > 60%
- solubility [2]: 13.7 µg/mL (≈ 42.4 µM)

SMILES: Cc1cc(C)n2ccc(C(=O)NC3(C4CC4)CC3)c2n1 [III-22]
- activation at 0.1 µM [1]: 10 to 20%
- activation at 1 µM [1]: > 60%
- solubility [2]: 21.4 µg/mL (≈ 79.5 µM)

SMILES: Cc1cc(C)n2ccc(C(=O)NC(C)(C)C3CC3)c2n1 [III-23]
- activation at 0.1 µM [1]: > 20%
- activation at 1 µM [1]: > 60%
- solubility [2]: 18.7 µg/mL (≈ 68.9 µM)

SMILES: Cc1cc(C)n2ccc(C(=O)NC(CC(C)C)C3CC3)c2n1 (stereo not drawn) [III-24]
- activation at 0.1 µM [1]: > 20%
- activation at 1 µM [1]: > 60%
- solubility [2]: 10.9 µg/mL (≈ 36.4 µM)

SMILES: Cc1cc(C)n2cc(C3CC3)c(C(=O)NC(C)(C)C3CC3)c2n1 [III-25]
- activation at 0.1 µM [1]: < 10%
- activation at 1 µM [1]: 30 to 60%
- solubility [2]: 0.3 µg/mL (≈ 0.963 µM)

SMILES: Cc1cc(C)n2c(C)cc(C(=O)N[C@@H](C)C3CC3)c2n1 [III-26]
- activation at 0.1 µM [1]: 10 to 20%
- activation at 1 µM [1]: > 60%
- solubility [2]: 8.6 µg/mL (≈ 31.7 µM)

SMILES: Cc1cc(C)n2cc(C)c(C(=O)N[C@@H](C)C3CC3)c2n1 [III-27]
- activation at 0.1 µM [1]: 10 to 20%
- activation at 1 µM [1]: > 60%
- solubility [2]: 8.6 µg/mL (≈ 31.7 µM)

SMILES: Cc1cc(-c2cocn2)nc2c(C(=O)N[C@H]3CCCc4ccccc43)ccn12 [III-28]
- activation at 0.1 µM [1]: < 10%
- activation at 1 µM [1]: 30 to 60%
- solubility [2]: 1.4 µg/mL (≈ 3.76 µM)

SMILES: Cc1cc(C)n2ccc(C(=O)NC3(c4ccc(F)cc4)CCOCC3)c2n1 [III-29]
- activation at 0.1 µM [1]: < 10%
- activation at 1 µM [1]: 30 to 60%
- solubility [2]: 2.4 µg/mL (≈ 6.53 µM)

SMILES: Cc1cc(-c2ccc(F)cc2)nc2c(C(=O)N[C@@H](C)C3CC3)ccn12 [III-30]
- activation at 0.1 µM [1]: > 20%
- activation at 1 µM [1]: > 60%
- solubility [2]: 0.1 µg/mL (≈ 0.296 µM)

SMILES: Cc1cc(-c2ccc(F)cc2)n2ccc(C(=O)N[C@@H](C)C3CC3)c2n1 [III-31]
- activation at 0.1 µM [1]: < 10%
- activation at 1 µM [1]: 30 to 60%
- solubility [2]: 0.7 µg/mL (≈ 2.07 µM)

SMILES: Cc1ccnc2c(C(=O)NC3(c4ccccc4OC4CC4)CC3)ccn12 [III-34]
- activation at 0.1 µM [1]: < 10%
- activation at 1 µM [1]: 30 to 60%
- solubility [2]: 6.3 µg/mL (≈ 18.1 µM)

SMILES: Cc1cc(C)n2ccc(C(=O)NC(Cc3ccccc3)c3ccccc3)c2n1 (stereo not drawn) [IV-38]
- solubility [2]: 0.2 µg/mL (≈ 0.541 µM)

SMILES: Cc1cc(C)n2ccc(C(=O)N[C@@H](C)c3cccc4c3CCCC4)c2n1 [IV-99]
- activation at 0.1 µM [1]: > 20%
- activation at 1 µM [1]: > 60%

SMILES: CCc1ccc([C@@H](C)NC(=O)c2ccn3c(C)cc(C)nc23)cc1 [IV-100]
- activation at 0.1 µM [1]: 10 to 20%
- activation at 1 µM [1]: > 60%

SMILES: CCC(CO)(NC(=O)c1ccn2c(C)cc(C)nc12)c1ccccc1 (stereo not drawn) [IV-101]
- activation at 0.1 µM [1]: < 10%
- activation at 1 µM [1]: 30 to 60%

SMILES: Cc1cc(C)n2ccc(C(=O)NC(C)c3cccc(N4CCCC4)c3)c2n1 (stereo not drawn) [IV-102]
- activation at 0.1 µM [1]: < 10%
- activation at 1 µM [1]: > 60%

SMILES: Cc1cc(C)n2ccc(C(=O)NC(C)(C)c3ccc(F)cc3)c2n1 [IV-103]
- activation at 0.1 µM [1]: > 20%
- activation at 1 µM [1]: > 60%

SMILES: Cc1cc(C)n2ccc(C(=O)NC(C)c3ccc(C)c(F)c3)c2n1 (stereo not drawn) [IV-104]
- activation at 0.1 µM [1]: > 20%
- activation at 1 µM [1]: > 60%

SMILES: CCC(NC(=O)c1ccn2c(C)cc(C)nc12)c1cccc(Cl)c1 (stereo not drawn) [IV-105]
- activation at 0.1 µM [1]: > 20%
- activation at 1 µM [1]: > 60%

SMILES: CCn1c(C(C)NC(=O)c2ccn3c(C)cc(C)nc23)nc2c1CCCC2 (stereo not drawn) [IV-106]
- activation at 0.1 µM [1]: < 10%
- activation at 1 µM [1]: < 30%

SMILES: Cc1cc(C)n2ccc(C(=O)NC(C)c3ccc(F)c(C)c3)c2n1 (stereo not drawn) [IV-107]
- activation at 0.1 µM [1]: 10 to 20%
- activation at 1 µM [1]: > 60%

SMILES: Cc1cc(C)n2ccc(C(=O)NC(C)c3ccccc3F)c2n1 (stereo not drawn) [IV-108]
- activation at 0.1 µM [1]: 10 to 20%
- activation at 1 µM [1]: > 60%
